Measurements as given in the NIST ThermoML archive (doi:10.1016/j.jct.2011.10.014).
“And” between values parts separate entries of the source, which are not always exact repeats. Identical values can stand only once.

Assay: molar heat capacity at constant pressure
Conditions: 101.33 kPa, Crystal, Vacuum adiabatic calorimetry

O=C([O-])[O-].[Pb+2] [lead(II) carbonate]
Conditions | molar heat capacity at constant pressure
229.94 K | 77.92 J/K/mol
230 K | 77.94 J/K/mol
233.13 K | 78.35 J/K/mol
236.26 K | 78.83 J/K/mol
239.37 K | 79.24 J/K/mol
240 K | 79.27 J/K/mol
242.47 K | 79.61 J/K/mol
245.56 K | 79.93 J/K/mol
247.36 K | 80.25 J/K/mol
247.44 K | 80.03 J/K/mol
248.53 K | 80.25 J/K/mol
248.62 K | 80.46 J/K/mol
249.63 K | 80.36 J/K/mol
250 K | 80.62 J/K/mol
250.32 K | 80.37 J/K/mol
250.72 K | 80.4 J/K/mol
251.68 K | 80.91 J/K/mol
251.81 K | 80.67 J/K/mol
252.9 K | 80.66 J/K/mol
253.25 K | 80.99 J/K/mol
253.98 K | 80.8 J/K/mol
254.73 K | 81.2 J/K/mol
255.06 K | 81.13 J/K/mol
255.71 K | 81.1 J/K/mol
256.15 K | 81.11 J/K/mol
256.2 K | 81.29 J/K/mol
256.35 K | 81.17 J/K/mol
257 K | 81.19 J/K/mol
257.23 K | 81.2 J/K/mol
257.66 K | 81.19 J/K/mol
257.75 K | 81.55 J/K/mol
258.31 K | 81.42 J/K/mol
258.32 K | 81.33 J/K/mol
258.97 K | 81.78 J/K/mol
259.12 K | 81.62 J/K/mol
259.4 K | 81.47 J/K/mol
259.66 K | 81.57 J/K/mol
260 K | 81.98 J/K/mol
260.33 K | 81.49 J/K/mol
260.47 K | 81.78 J/K/mol
260.76 K | 82.18 J/K/mol
260.93 K | 82.3 J/K/mol
261 K | 81.89 J/K/mol
261.55 K | 81.78 J/K/mol
261.69 K | 82.09 J/K/mol
262.03 K | 82.18 J/K/mol
262.39 K | 82.04 J/K/mol
262.62 K | 82.88 J/K/mol
262.63 K | 81.92 J/K/mol
263.17 K | 81.79 J/K/mol
263.27 K | 82.56 J/K/mol
263.7 K | 82.23 J/K/mol
263.78 K | 82.71 J/K/mol
263.85 K | 82.12 J/K/mol
263.9 K | 82.69 J/K/mol
264.53 K | 82.15 J/K/mol
264.54 K | 82.73 J/K/mol
264.79 K | 82.47 J/K/mol
264.95 K | 82.64 J/K/mol
265.18 K | 82.86 J/K/mol
265.2 K | 82.17 J/K/mol
265.82 K | 82.91 J/K/mol
265.86 K | 82.45 J/K/mol
265.88 K | 82.3 J/K/mol
266.47 K | 83.02 J/K/mol
266.56 K | 82.66 J/K/mol
266.78 K | 83.22 J/K/mol
266.94 K | 82.58 J/K/mol
267.12 K | 83.34 J/K/mol
267.27 K | 82.4 J/K/mol
267.77 K | 83.48 J/K/mol
267.85 K | 83 J/K/mol
267.95 K | 82.62 J/K/mol
268.01 K | 82.76 J/K/mol
268.42 K | 83.69 J/K/mol
268.63 K | 82.71 J/K/mol
269.07 K | 83.96 J/K/mol and 83 J/K/mol
269.31 K | 82.9 J/K/mol
269.73 K | 83.98 J/K/mol
269.75 K | 84.22 J/K/mol
269.99 K | 83.23 J/K/mol
270 K | 83.33 J/K/mol
270.14 K | 83.5 J/K/mol
270.38 K | 84.12 J/K/mol
270.68 K | 83.45 J/K/mol
270.74 K | 83.86 J/K/mol
271.04 K | 84.03 J/K/mol
271.2 K | 83.78 J/K/mol
271.36 K | 84.03 J/K/mol
271.7 K | 84.69 J/K/mol
272.07 K | 84.59 J/K/mol
272.26 K | 84.68 J/K/mol
272.43 K | 85.87 J/K/mol
272.67 K | 88.34 J/K/mol
272.77 K | 85.64 J/K/mol
273.1 K | 94.33 J/K/mol
273.15 K | 83.77 J/K/mol
273.3 K | 90.01 J/K/mol
273.43 K | 87.85 J/K/mol
273.58 K | 87.5 J/K/mol
273.76 K | 86.34 J/K/mol
274.21 K | 85.21 J/K/mol
274.36 K | 85.11 J/K/mol
274.43 K | 85.57 J/K/mol
274.92 K | 84.78 J/K/mol
275.09 K | 85.53 J/K/mol
275.43 K | 85.37 J/K/mol
275.61 K | 85.08 J/K/mol
275.62 K | 85.95 J/K/mol
275.76 K | 86.02 J/K/mol
276.3 K | 85.69 J/K/mol
276.44 K | 86.06 J/K/mol
276.47 K | 85.96 J/K/mol
276.49 K | 86.54 J/K/mol
276.98 K | 85.66 J/K/mol
277.13 K | 85.86 J/K/mol
277.55 K | 87.21 J/K/mol
277.67 K | 85.56 J/K/mol
277.8 K | 86.13 J/K/mol
278.35 K | 85.61 J/K/mol
278.49 K | 85.51 J/K/mol
278.57 K | 85.33 J/K/mol
278.64 K | 85.79 J/K/mol
279.04 K | 84.8 J/K/mol
279.16 K | 84.95 J/K/mol
279.34 K | 85.02 J/K/mol
279.74 K | 85.51 J/K/mol and 84.58 J/K/mol
279.84 K | 84.46 J/K/mol
280 K | 84.69 J/K/mol
280.48 K | 84.25 J/K/mol
280.51 K | 84.4 J/K/mol
280.87 K | 84.45 J/K/mol
281.17 K | 84.41 J/K/mol
281.18 K | 84.61 J/K/mol
281.61 K | 84.92 J/K/mol
281.86 K | 84.62 J/K/mol
281.87 K | 84.51 J/K/mol
282.22 K | 84.71 J/K/mol
282.54 K | 84.79 J/K/mol
283.3 K | 84.95 J/K/mol
283.98 K | 85.16 J/K/mol
284.55 K | 85.29 J/K/mol
284.68 K | 85.43 J/K/mol
285.39 K | 85.19 J/K/mol
286.07 K | 85.27 J/K/mol
286.75 K | 85.41 J/K/mol
287.43 K | 85.38 J/K/mol
287.49 K | 85.63 J/K/mol
288.12 K | 85.33 J/K/mol
288.8 K | 85.51 J/K/mol
289.49 K | 85.71 J/K/mol
290 K | 86.01 J/K/mol
290.41 K | 86 J/K/mol
293.33 K | 86.4 J/K/mol
296.23 K | 86.78 J/K/mol
298.15 K | 87.07 J/K/mol
299.12 K | 87.18 J/K/mol
300 K | 87.3 J/K/mol
302 K | 87.59 J/K/mol
304.88 K | 87.95 J/K/mol
307.76 K | 88.29 J/K/mol
310 K | 88.56 J/K/mol
310.62 K | 88.63 J/K/mol
313.49 K | 89 J/K/mol
316.35 K | 89.34 J/K/mol
320 K | 89.76 J/K/mol
